Patent publication US4578376A, “Pharmaceutical compositions for the treatment of osteopathias” (Istituto Gentili S.p.A., priority 1981, dated 1986)
Entries after “also recorded” stand apart in the source; their conditions may differ. Counter-ions that a name gives are not always drawn. Like-named read-outs stand apart in the source and are kept apart here.

What was measured:
[1] = test system: demineralizing osteopathias, characterized by a high rate of bone reabsorption; experiment: Clinical study: metabolism of phosphorus and calcium, indexes of bone reabsorption; format: in vivo
Description: In view of the favorable pharmacological and toxicological results, the substance, AHEDP, has been tested clinically. The study deals with the effects on the metabolism of phosphorus and calcium of the new diphosphonate according to the present invention used in the treatment of demineralizing osteopathias, characterized by a high rate of bone reabsorption.
(§1) Six individuals affected by the bone disease called Paget's condition, that is three men and three women of age between 52 and 68; three individuals affected by metastatic osteolysis, resulting from mammary carcinoma, that is three women between age 42 and 59 years old.
(§2) In eight cases, that is five individuals affected by Paget's disease and three individuals affected by osteolysis, the treatment has been carried out for fifteen days (in one of the cases of the individuals affected by Paget's disease, treatment continued for an additional fifteen days of therapy with a higher dosage); in the ninth case of the individual affected by Paget's disease, the treatment was continued for thirty days.
(§3) The first four cases, that is two individuals affected by Paget's disease and two individuals affected by osteolysis, have received dosage of AHEDP of 5 mg daily by the intravenous route (slow infusion); in the fifth case, the individual affected by Paget's disease, received a dose of 10 mg daily for fifteen days and then 20 mg daily for an additional period of fifteen days. Three other cases, that is two individuals affected by Paget's disease and one individual affected by osteolysis have been administered doses of 20 mg daily for fifteen days. The ninth individual affected by Paget's disease, has been treated with doses of 40 mg daily for 30 days.
(§4) Several parameters have been studied prior to the treatment, during the treatment and at the end of the treatment with respect to the metabolism of phosphorus and calcium and the tolerability of the substance.
calcemia, phosphatemia, alkaline phosphatasemia, plasmatic PGE2, plasmatic iPTH, calciuria, phosphaturia, hydroxyprolinuria, cyclic nephrogenic AMP.

Swiss mice = experiment: Toxicity (DL50) in Swiss mice; format: in vivo, both male and female
Description: (§5) In vivo, the degree of toxicity of AHEDP has been determined in Swiss mice, both male and female by various routes of administration and by comparison with some of the best known and used diphosphonates.

[2] = Toxicity (DL50) in Swiss mice; format: in vivo, both male and female; settings: mouse, in vivo, Swiss mice male and female
Description: as §5

bone reabsorption = experiment: Bone reabsorption and in vivo calcification (mineral density in the tibia metaphysis, body weight); design: species or system Wistar rats
Method: Groups of five Wistar rats of weight between 180 and 200 grams have been treated for seven days with 0.01, 0.1, 1.0 and 10 mg P/kg of AHEDP or with a physiological solution by the subcutaneous route. The animals have been fed with Altromine 1314 containing 1.1 gram per 100 grams of calcium, 1.2 grams per 100 grams P and 250 IU per 100 grams of Vitamin D3. On the eighth day, the animals were killed and the tibia bones are removed and fixed in 50% ethanol. The tibia bones were then prepared for the histological examination and sections of 70-80μ thickness have been prepared for the microradiological study. This procedure has permitted an estimate of the mineral density in the metaphysis (Schenk, et al. Calc. Tiss. Res. 11, 196-214, 1973).

[3] = Clinical study: tolerability; format: in vivo
Description: as §1, §2, §3, §4
Hemochromocytometric examination, proteinemia, glycemia, azotemia, creatininemia, transaminasemia, immunoglobulin.

Solubility = format: physicochemical
calvaria cells = experiment: cells; format: cell-based, Wistar rats
Method: Cellular culture; the cells are first cultured in accordance with the method reported by Fast, et al., (Biochemical Journal, 172, 97-107 (1978). In short, calvaria removed from Wistar rats one day old has been digested with collagenase. The freed cells have been placed on plates in a concentration of […] per ml of medium in Petri dishes of 3.5 cm diameter containing 1.5 ml of medium in dishes of 1.6 cm diameter containing 0.5 ml of medium. The cells have been cultivated in the essential minimum medium containing 10% of fetal calf serum in an atmophere of 5% CO2 at 37° C. up to the seventh or eighth day. The diphosphonates have been added on the first day up to the end of the experiment.
The cells have been counted with a Coulter counter after having been freed from the dishes by digestion with a mixture of collagenase and trypsin. On the seventh day, the mixture has been changed and the cells have been incubated for sixteen hours. The so obtained lactate during this period has been measured according to the method of Fast, et al.

[4] = no APD clinical test described in the patent; cited from earlier work
Toxicity (DL50) in rats = settings: rat, in vivo, iv; I.v., rats (footnote *)
[5] = solutions, very low concentrations; cited from earlier work
[6] = oral route or systemic route; cited from earlier work
[7] = Rattus norvegicus, read-out: No. of Cells, % of control ± E.S.

For `NCCCCCC(O)(P(=O)(O)O)P(=O)(O)O` [AHEDP, 6-amino-1-hydroxyhexane-1,1-diphosphonic acid], the “plasmatic PGE2” value ([1]; 10 mg daily, one individual with Paget's disease) was “has not caused any change in this parameter”, the “osteolysis and plasmatic alkaline phosphatase (both parameters)” value ([1]; 40 mg daily, one individual) was “a reduction of both parameters” and the alkaline phosphatasemia ([1]; 40 mg daily, one individual (Paget's disease in active phase)) was “clear and rapid decrease of the alkaline phosphatasemia levels”. The “urinary excretion of inorganic calcium and inorganic phosphates” value ([1]; 5-10 mg daily) was “have not modified to a significant degree”, the “alkaline phosphatasemia / indexes of osteoblastic activity” value ([1]; 5-10-20 mg daily) was “have not been modified; also recorded: have not caused significant modifications in the plasmatic alkaline phosphatase” and the osteolysis ([1]; 5-10-20 mg daily) was “blocking osteolysis”. The “indexes of parathyroid activity (plasmatic immunoreactive PTH, cyclic nephrogenic AMP)” value ([1]; 5-10-20-40 mg daily) was “have not caused significant modification changes in the indexes of parathyroid activity”, the “plasmatic PGE2” value ([1]; 20-40 mg daily, three individuals with Paget's disease and high prior levels) was “substantial and rapid decrease in the plasmatic PGE2 in all three individuals” and the “urinary excretion of inorganic calcium and inorganic phosphates” value ([1]; 20-40 mg daily, obvious particularly in phosphaturia) was “significant increases of these two parameters”. The “urinary excretion of hydroxyproline” value ([1]; all the individuals treated) was “reduced to a significant extent in all the individuals treated; also recorded: prompt and progressive reduction of the urinary excretion of hydroxyproline”, the “calcium and phosphate levels of the plasma” value ([1]; every dosage used) was “has not caused variations worth mentioning” and the hyperphosphatemia ([1]; human, in vivo) was “phases of hyperphosphatemia have not been observed”. The calcemia ([1]; very short periods of some treatments) was “a low degree of calciemic contents have been noted”, the “hydroxyprolinuria, dependence on dosage” value ([1]; with respect to the values prior to treatment) was “so much greater with respect to the values prior to treatment, the higher the dosage” and the “degree of toxicity (in words)” value (Swiss mice; every route of administration) was “low degree of toxicity in every route of administration”. For the same molecule, the “tolerance in comparison with the analog ADP” value (Swiss mice; mouse, in vivo) was “superior tolerance”, the LD50 ([2]; ip, I.p.) was 650 mg/kg and the LD50 ([2]; iv, I.v.) was 85 mg/kg. For the same molecule, the LD50 ([2]; po, OS (orally)) was > 2000 mg/kg, the “density of the bone” value (bone reabsorption; 0.01 mg P/kg, subcutaneous, seven days) was “no effect on the density of the bone” and the “inhibition of the bone reabsorption” value (bone reabsorption; 0.1 mg and particularly 1 mg P/kg) was “a clear inhibition of the bone reabsorption”. The “density of the metaphyses” value (bone reabsorption; 0.1 mg and particularly 1 mg P/kg, subcutaneous, seven days) was “an increase in the density of the metaphyses”, the “influence on the body weight” value (bone reabsorption; 0.01, 0.1, 1.0 mg P/kg, subcutaneous, seven days) was “No treatment has shown any influence on the body weight” and the “influence on the body weight” value (bone reabsorption; 10 mg P/kg, subcutaneous, seven days) was “except in the dose of 10 mg P/kg, which obviously has no significant value”. For the same molecule, the “inhibition of the bone reabsorption, in words and in comparison with other well-known diphosphonates” value (bone reabsorption; rat, in vivo) was “powerful inhibitor of the bone reabsorption in a degree superior or similar to that of other well-known diphosphonates”, the tolerability ([3]; 5-40 mg daily intravenous, 15-30 days) was “well tolerated; also recorded: tolerated in all cases” and the “variations in the parameters of tolerability” value ([3]; hemochromocytometric examination, proteinemia, glycemia, azotemia, creatininemia, transaminasemia, immunoglobulin) was “has not caused significant variations in the parameters of tolerability”. For the same molecule, the “increase of the body temperature or variation in the hematic crasia” value ([3]; human, in vivo) was “in none of the individuals treated, there has been observed an increase of the body temperature or any variation in the hematic crasia”, the “modifications of the hematic crasia and hepatic and renal functions” value ([3]; human, in vivo) was “nor have substantial modifications of the hematic crasia and hepatic and renal functions been noted” and the side effects ([3]; human, in vivo) was “no side effects of any significance have been noted; also recorded: no undesirable side effects have been noted”. The “solubility in HCl” value (Solubility; HCl of average concentration) was “dissolves in HCl of average concentration”, the solubility in water (Solubility; water) was “little soluble in water” and the “solubility with NaOH” value (Solubility; water with addition of one equivalent of NaOH) was “dissolves completely by addition of one equivalent of NaOH”. For the same molecule, the “effect on the number of cells (in words)” value (calvaria cells; 250 μM) was “some reductions, although slightly in the number of cells”, the “effect on the production of the lactate (in words)” value (calvaria cells; 250 μM) was “increase in the production of the lactate” and the activity at 0.25 µM (calvaria cells; Rattus norvegicus, 0.25 μM, read-out: No. of Cells, % of control ± E.S.) was 96.6 ± 1.7%. It also gave an activity at 2.5 µM (calvaria cells; Rattus norvegicus, 2.5 μM, * = significance with respect to the control (APD), read-out: No. of Cells, % of control ± E.S.) of 95.7 ± 7.8%, an activity at 25 µM (calvaria cells; Rattus norvegicus, 25 μM, * = significance with respect to the control (APD), read-out: No. of Cells, % of control ± E.S.) of 104 ± 2.1% and an activity at 250 µM (calvaria cells; Rattus norvegicus, 250 μM, * = significance with respect to the control (AHEDP), read-out: No. of Cells, % of control ± E.S.) of 88.4 ± 1.5%. The “cellular toxicity, times less than APD” value (calvaria cells; compared with the analog APD) was “about 100 times less” and the “effect on the cellular behavior” value (calvaria cells; concentrations lower than 250 μM) was “no negative effect is noted on the cellular behavior”.

For `NCCC(O)(P(=O)([O-])O)P(=O)([O-])O.[Na+].[Na+]` [APD, 3-Amino-1-hydroxypropane-1,1-diphosphonic acid disodium salt], the “alterations in body temperature and hematic crasia (comparison analog)” value [4] is listed as “causes substantial alterations in the parameters discussed hereinabove”, the LD50 ([2]; ip, I.p.) is listed as 190 mg/kg and the LD50 ([2]; iv, I.v.) is listed as 45 mg/kg. The LD50 ([2]; po, OS (orally)) was 625 mg/kg, the activity at 2.5 µM (calvaria cells; [7]) was 90.8 ± 2.1% and the activity at 25 µM (calvaria cells; [7]) was 64.9 ± 4.1%. It also gave an activity at 250 µM (calvaria cells; [7]) of 0%.

With `O=P([O-])([O-])C(Cl)(Cl)P(=O)(O)O.[Na+].[Na+]` [Cl2 MDP, Dichloromethylenediphosphonic acid disodium salt] the LD50 ([2]; ip, I.p.) was 780 mg/kg, the LD50 ([2]; iv, I.v.) was 75 mg/kg and the LD50 ([2]; po, OS (orally)) was > 2000 mg/kg.

Molecule `CC(O)(P(=O)(O)O)P(=O)(O)O` [EHDP, Ethane-1-hydroxy-1,1-diphosphonic acid disodium salt] has an LD50 (Toxicity (DL50) in rats) of 35 mg/kg, an LD50 ([2]; ip, I.p.) of 250 mg/kg and an LD50 ([2]; po, OS (orally)) of 2000 mg/kg.

In the case of `O=P(O)(O)OP(=O)(O)O` [pyrophosphate], the “precipitation of calcium phosphate” value [5] is listed as “capable of inhibiting the precipitation of calcium phosphate” and the hydrolysis on administration [6] is listed as “rapid hydrolysis”.
